Laboratory results as given in PMC4890880 (ACS infectious diseases, 2016).
Where two headings read alike, the source gives them in different places.

Columns and labels:
HepG2-A16-CD81EGFP cells = details: sheet 2nd round; for IC50: read-out: Tox_IC50, HepG2 cytotoxicity; for Tox_max_inhibition (%): maximal inhibition in dose response
[1] = tested on: Plasmodium berghei (Pb-Luc) exoerythrocytic-stage parasites; details: for normalized signal at concentration 0.000508053 / normalized signal at concentration 0.00152416 / normalized signal at concentration 0.00457247 / normalized signal at concentration 0.0137174 / normalized signal at concentration 0.0411523 / normalized signal at concentration 0.123457 / normalized signal at concentration 0.37037 / normalized signal at concentration 1.11111 / normalized signal at concentration 3.33333 / normalized signal at concentration 10: fraction of control; for IC50: read-out: PbLuc_IC50; for IC50 / PbLuc_max_inhibition (%): sheet 2nd round; for PbLuc_max_inhibition (%): maximal inhibition in dose response
[2] = second series of columns (replicate)

Structure (SMILES): C[C@H]1CN([C@@H](C)CO)C(=O)CCCn2cc(nn2)CO[C@H]1CN(C)C(=O)Nc1cccc2ccccc12 [BRD-K54628954-001-01-2]
- IC50 (HepG2-A16-CD81EGFP cells): > 10 µM
- Tox_max_inhibition (%) (HepG2-A16-CD81EGFP cells): 1.76%
- normalized signal at concentration 0.000508053 ([1]; first series of columns): 0.8794
- normalized signal at concentration 0.00152416 ([1]; first series of columns): 0.9359
- normalized signal at concentration 0.00457247 ([1]; first series of columns): 0.9054
- normalized signal at concentration 0.0137174 ([1]; first series of columns): 0.8762
- normalized signal at concentration 0.0411523 ([1]; first series of columns): 0.8388
- normalized signal at concentration 0.123457 ([1]; first series of columns): 0.9562
- normalized signal at concentration 0.37037 ([1]; first series of columns): 0.9801
- normalized signal at concentration 1.11111 ([1]; first series of columns): 0.9783
- normalized signal at concentration 3.33333 ([1]; first series of columns): 0.874
- normalized signal at concentration 10 ([1]; first series of columns): 0.9112
- IC50 ([1]; Pb-Luc exoerythrocytic stage, 10-point dose response, top concentration 10): > 10 µM
- normalized signal at concentration 0.000508053 [1, 2]: 0.8292
- normalized signal at concentration 0.00152416 [1, 2]: 0.8809
- normalized signal at concentration 0.00457247 [1, 2]: 0.7545
- normalized signal at concentration 0.0137174 [1, 2]: 0.9599
- normalized signal at concentration 0.0411523 [1, 2]: 0.9428
- normalized signal at concentration 0.123457 [1, 2]: 0.9557
- normalized signal at concentration 0.37037 [1, 2]: 0.8087
- normalized signal at concentration 1.11111 [1, 2]: 0.9126
- normalized signal at concentration 3.33333 [1, 2]: 0.9018
- normalized signal at concentration 10 [1, 2]: 1.015
- PbLuc_max_inhibition (%) [1]: 25%

Structure (SMILES): COc1cccc(CN2[C@H](CO)[C@@H](c3ccccc3)C23CN(Cc2ccccc2OC)C3)c1 [BRD-K58149752-001-01-9]
- IC50 (HepG2-A16-CD81EGFP cells): > 10 µM
- Tox_max_inhibition (%) (HepG2-A16-CD81EGFP cells): 12%
- normalized signal at concentration 10 ([1]; first series of dose-response columns): 0.43
- normalized signal at concentration 0.000508053 ([1]; first series): 0.95
- normalized signal at concentration 0.00152416 ([1]; first series): 0.91
- normalized signal at concentration 0.00457247 ([1]; first series): 0.80
- normalized signal at concentration 0.0137174 ([1]; first series): 0.89
- normalized signal at concentration 0.0411523 ([1]; first series): 0.73
- normalized signal at concentration 0.123457 ([1]; first series): 1.00
- normalized signal at concentration 0.37037 ([1]; first series): 0.78
- normalized signal at concentration 1.11111 ([1]; first series): 1.22
- normalized signal at concentration 3.33333 ([1]; first series): 1.08
- IC50 ([1]; Broad compounds, dose response): > 10 µM
- normalized signal at concentration 10 ([1]; second series of dose-response columns): 0.60
- normalized signal at concentration 0.000508053 ([1]; second series): 0.82
- normalized signal at concentration 0.00152416 ([1]; second series): 0.84
- normalized signal at concentration 0.00457247 ([1]; second series): 0.88
- normalized signal at concentration 0.0137174 ([1]; second series): 0.90
- normalized signal at concentration 0.0411523 ([1]; second series): 1.01
- normalized signal at concentration 0.123457 ([1]; second series): 0.92
- normalized signal at concentration 0.37037 ([1]; second series): 0.85
- normalized signal at concentration 1.11111 ([1]; second series): 0.92
- normalized signal at concentration 3.33333 ([1]; second series): 0.98
- PbLuc_max_inhibition (%) [1]: 57%
